Test results published in doi:10.1101/2020.06.06.138008v1 (biorxiv, 2020).

Biological target: MlaFEDB (Escherichia coli, UniProt P63386)
Conditions: pH 8.0, 5 mM MgCl2, 150 mM NaCl, 0.5 mM DDM micelles; Hill n = 1.81 ± 0.35

MlaFEDB, sequence (P63386 whole entry): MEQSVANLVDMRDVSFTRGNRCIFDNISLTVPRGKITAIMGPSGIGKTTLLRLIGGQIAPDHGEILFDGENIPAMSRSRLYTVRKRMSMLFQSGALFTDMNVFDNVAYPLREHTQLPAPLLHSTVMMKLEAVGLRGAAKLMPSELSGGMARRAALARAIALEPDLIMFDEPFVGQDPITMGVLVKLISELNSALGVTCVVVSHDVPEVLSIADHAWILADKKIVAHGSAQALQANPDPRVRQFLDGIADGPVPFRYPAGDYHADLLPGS
MlaFEDB, sequence (P64606 whole entry partner): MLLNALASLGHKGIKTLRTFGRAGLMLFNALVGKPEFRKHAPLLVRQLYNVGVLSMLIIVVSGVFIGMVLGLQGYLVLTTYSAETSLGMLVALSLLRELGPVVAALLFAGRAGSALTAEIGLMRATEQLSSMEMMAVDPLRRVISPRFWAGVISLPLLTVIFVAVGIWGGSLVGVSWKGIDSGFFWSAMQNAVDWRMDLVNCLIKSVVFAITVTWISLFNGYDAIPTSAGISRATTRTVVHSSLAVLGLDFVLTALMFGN
MlaFEDB, sequence (P64604 whole entry partner): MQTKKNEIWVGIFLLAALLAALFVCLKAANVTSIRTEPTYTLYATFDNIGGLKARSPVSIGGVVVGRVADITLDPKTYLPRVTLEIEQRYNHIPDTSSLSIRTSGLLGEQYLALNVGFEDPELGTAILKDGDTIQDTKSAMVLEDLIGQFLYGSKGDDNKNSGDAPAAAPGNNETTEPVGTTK
MlaFEDB, sequence (P64602 whole entry partner): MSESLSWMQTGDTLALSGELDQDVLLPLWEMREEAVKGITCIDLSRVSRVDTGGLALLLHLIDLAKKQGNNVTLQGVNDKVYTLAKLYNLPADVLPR

- Km: 200 ± 44.6 µM
SMILES: Nc1ncnc2c1ncn2[C@@H]1O[C@H](COP(=O)(O)OP(=O)(O)OP(=O)(O)O)[C@@H](O)[C@H]1O [ATP]
